According to article PMC11009625, “Antibiotic class with potent in vivo activity targeting lipopolysaccharide synthesis in Gram-negative bacteria” (Proceedings of the National Academy of Sciences of the …, 2024):
Values after ≈ are worked out from the molar mass of the structure shown. Where two headings read alike, the source gives them in different places.

Tests used:
Assay type in all cases: cell-based
E. coli ATCC 25922 = assay: MIC (CLSI broth microdilution), wild-type E. coli; settings: ATCC 25922 (Table S4); for MIC: Escherichia coli, ATCC25922, read-out: MIC E. coli EN0001
Protocol: (§1) Minimum inhibitory concentration (MIC) values were determined according to the Clinical Laboratory Standards Institute guidelines. Frequency of resistance was determined by plating ~5 × 10^8 bacterial cells on agar-solidified media plates containing test compound at concentrations corresponding to four times the measured solid-media MIC of the strains. Colonies were counted after 24 h, restreaked onto media containing the same concentration of compound, and the MIC remeasured against the assayed compound. Genomic DNA from isolated clones was sequenced by paired-end sequencing on an Illumina MiSeq device. Complete experimental details available in SI Appendix. […]
Minimum inhibitory concentration (MIC) determination. Broth microdilution and agar dilution
MIC assays were conducted according to CLSI guidelines (M07-2012). Appropriate inoculation
suspension density was assessed using a Sensititre Nephelometer with a Sensititre 0.5
(§2) McFarland Standard. […]

[1] = system: clinical MDR E. coli isolates; assay: MIC, clinical multi-drug resistant E. coli isolates; settings: for MIC: Escherichia coli
Protocol: as §1
(§3) Minimum inhibitory concentration (MIC) determination. Broth microdilution and agar dilution MIC assays were conducted according to CLSI guidelines (M07-2012). Appropriate inoculation suspension density was assessed using a Sensititre Nephelometer with a Sensititre 0.5 […]
as §2
Whole-genome sequencing and data analysis. Genomic DNA of selected clones was prepared using an Epicentre MasterPure Complete DNA Purification Kit. Whole-genome sequencing libraries were prepared using an Illumina Nextera XT Library Preparation Kit. The libraries were sequenced using an Illumina MiSeq device with a V3 600-cycle reagent kit. Whole-genome sequencing data was analyzed using CLC Genomics Workbench Version 11. To determine the genotype of MDR strains from the ENABLE strain collection, de novo assembled contigs were […]

[2] = system: clinical MDR K. pneumoniae isolates; assay: MIC, clinical multi-drug resistant K. pneumoniae isolates; settings: for MIC: Klebsiella pneumoniae
Protocol: as §1, §3, §2
To determine the […]
genotype of MDR strains from the ENABLE strain collection, de novo assembled contigs were […]

[3] = read-out: MIC K. pneumoniae EN0140
[4] = read-out: MIC K. pneumoniae EN0142
[5] = read-out: MIC K. pneumoniae EN0143
[6] = read-out: MIC K. pneumoniae EN0144
[7] = read-out: MIC K. pneumoniae EN0145
[8] = read-out: MIC K. pneumoniae EN0233
[9] = read-out: MIC K. pneumoniae EN0245
[10] = read-out: MIC K. pneumoniae EN0504

CO/N=C(\C(=O)N[C@@H]1C(=O)N2C(C(=O)O)=C(COC(C)=O)CS[C@H]12)c1csc(N)n1 [Cefotaxime]
MIC (E. coli ATCC 25922): 0.5 µg/mL (≈ 1.1 µM)
MIC ([1]; read-out: MIC E. coli EN0134): 8 µg/mL (≈ 17.6 µM)
MIC ([1]; read-out: MIC E. coli EN0135): 2 µg/mL (≈ 4.39 µM)
MIC ([1]; read-out: MIC E. coli EN0136): 4 µg/mL (≈ 8.78 µM)
MIC ([1]; read-out: MIC E. coli EN0137): > 64 µg/mL
MIC ([1]; read-out: MIC E. coli EN0138): > 64 µg/mL
MIC ([1]; read-out: MIC E. coli EN0139): > 64 µg/mL
MIC ([1]; read-out: MIC E. coli EN0303): > 64 µg/mL
MIC ([1]; read-out: MIC E. coli EN0481): > 64 µg/mL
MIC [2, 3]: > 64 µg/mL
MIC [2, 4]: > 64 µg/mL
MIC [2, 5]: 16 µg/mL (≈ 35.1 µM)
MIC [2, 6]: > 64 µg/mL
MIC [2, 7]: > 64 µg/mL
MIC [2, 8]: > 64 µg/mL
MIC [2, 9]: 64 µg/mL (≈ 141 µM)
MIC [2, 10]: > 64 µg/mL

CNC(C)C1CCC(N)C(OC2C(N)CC(N)C(OC3OCC(C)(O)C(NC)C3O)C2O)O1 (centres unmarked) [Gentamicin]
MIC (E. coli ATCC 25922): 1 µg/mL (≈ 2.09 µM)
MIC ([1]; read-out: MIC E. coli EN0134): 2 µg/mL (≈ 4.19 µM)
MIC ([1]; read-out: MIC E. coli EN0135): > 64 µg/mL
MIC ([1]; read-out: MIC E. coli EN0136): > 64 µg/mL
MIC ([1]; read-out: MIC E. coli EN0137): > 64 µg/mL
MIC ([1]; read-out: MIC E. coli EN0138): 8 µg/mL (≈ 16.8 µM)
MIC ([1]; read-out: MIC E. coli EN0139): 2 µg/mL (≈ 4.19 µM)
MIC ([1]; read-out: MIC E. coli EN0303): 2 µg/mL (≈ 4.19 µM)
MIC ([1]; read-out: MIC E. coli EN0481): > 64 µg/mL
MIC [2, 3]: > 64 µg/mL
MIC [2, 4]: 64 µg/mL (≈ 134 µM)
MIC [2, 5]: 0.5 µg/mL (≈ 1.05 µM)
MIC [2, 6]: > 64 µg/mL
MIC [2, 7]: 2 µg/mL (≈ 4.19 µM)
MIC [2, 8]: > 64 µg/mL
MIC [2, 9]: 2 µg/mL (≈ 4.19 µM)
MIC [2, 10]: 0.5 µg/mL (≈ 1.05 µM)

C[C@@H](O)[C@H]1C(=O)N2C(C(=O)O)=C(S[C@@H]3CN[C@H](C(=O)N(C)C)C3)[C@H](C)[C@H]12 [Meropenem]
MIC (E. coli ATCC 25922): ≤ 0.125 µg/mL
MIC ([1]; read-out: MIC E. coli EN0134): ≤ 0.125 µg/mL
MIC ([1]; read-out: MIC E. coli EN0135): ≤ 0.125 µg/mL
MIC ([1]; read-out: MIC E. coli EN0136): ≤ 0.125 µg/mL
MIC ([1]; read-out: MIC E. coli EN0137): ≤ 0.125 µg/mL
MIC ([1]; read-out: MIC E. coli EN0138): ≤ 0.125 µg/mL
MIC ([1]; read-out: MIC E. coli EN0139): ≤ 0.125 µg/mL
MIC ([1]; read-out: MIC E. coli EN0303): ≤ 0.125 µg/mL
MIC ([1]; read-out: MIC E. coli EN0481): ≤ 0.125 µg/mL
MIC [2, 3]: 2 µg/mL (≈ 5.22 µM)
MIC [2, 4]: 0.5 µg/mL (≈ 1.3 µM)
MIC [2, 5]: ≤ 0.125 µg/mL
MIC [2, 6]: 64 µg/mL (≈ 167 µM)
MIC [2, 7]: 8 µg/mL (≈ 20.9 µM)
MIC [2, 8]: 2 µg/mL (≈ 5.22 µM)
MIC [2, 9]: 2 µg/mL (≈ 5.22 µM)
MIC [2, 10]: 4 µg/mL (≈ 10.4 µM)

Colistin
MIC E. coli EN0001 (E. coli ATCC 25922): 2 µg/mL
MIC E. coli EN0135 ([1]; MDR (aac(3)-IIa, blaTEM-1B, blaSHV-12 ...)): 2 µg/mL
MIC E. coli EN0134 ([1]; MDR (blaCMY-4, blaTEM-1B ...)): 2 µg/mL
MIC E. coli EN0138 ([1]; MDR (blaCTX-M-14b, blaTEM-1C ...)): 2 µg/mL
MIC E. coli EN0139 ([1]; MDR (blaOXA-1, blaCTX-M-15 ...)): 2 µg/mL
MIC E. coli EN0137 ([1]; MDR (blaOXA-1, blaTEM-1B, blaCTX-M-15 ...)): 2 µg/mL
MIC E. coli EN0136 ([1]; MDR (blaOXA-2, blaTEM-1B, blaCTX-M-2 ...)): 1 µg/mL
MIC E. coli EN0481 ([1]; colistinR (mcr-1), MDR (rmtB ...)): 8 µg/mL
MIC E. coli EN0303 ([1]; colistinR (pmrB T156M), MDR): 8 µg/mL
MIC K. pneumoniae EN0144 ([2]; MBL (blaVIM-26), MDR): 2 µg/mL
MIC K. pneumoniae EN0145 ([2]; MDR (blaCTX-M-15 ...)): 2 µg/mL
MIC K. pneumoniae EN0140 ([2]; MDR (blaDHA-1 ...), OmpK36 loss): 2 µg/mL
MIC K. pneumoniae EN0143 ([2]; MDR (blaOXA-2, blaSHV-12 ...)): 2 µg/mL
MIC K. pneumoniae EN0142 ([2]; carbapenemR (blaKPC-2), MDR): 2 µg/mL
MIC K. pneumoniae EN0233 ([2]; carbapenemR (blaOXA-48), MDR, OmpK36 loss): 32 µg/mL
MIC K. pneumoniae EN0245 ([2]; colistinR (mgrB::IS10), MDR): 64 µg/mL
MIC K. pneumoniae EN0504 ([2]; colistinR, MDR): 64 µg/mL
